According to patent publication US20030225007A1, “Sulfonamide derivatives of 3-substituted imidazol[1,2-d]-1,2,4-thiadiazoles and 3-substituted-[1,2,4] thiadiazolo[4,5-a] benzimidazole as inhibitors of fibrin cross-linking and transglutaminases” (Apotex Inc., priority 2002, published 2003):

Test system: platelet-depleted and platelet-rich human plasma clots
Test: Acceleration of fibrinolysis of platelet-depleted and platelet-rich plasma clots (t-PA lysis)
Type: biochemical
Details: platelet-depleted and platelet-rich human plasma clots made with varying inhibitor concentrations; lysis with 300 IU/mL t-PA; FIG. 3
Protocol: Platelet rich (platelet count: 150,000-300,000 mm^−3) or platelet-depleted citrated human plasma was prepared from at least three donors. Plasma (0.3 mL), containing 2-4 μg/mL of ^125I-labeled fibrinogen (specific activity approx. 200 μCi/mg, at least 85% clotability, Amersham Pharmacia Biotech UK Ltd.), was clotted by the addition of CaCl2 (6.4 μL) to a final concentration of 50 mM and thrombin (6.2 μL) to a final concentration of 5 units/mL. Solutions of Factor XIIIa inactivators in DMSO were added just prior to the addition of thrombin and CaCl2. In some cases the inactivator was dissolved and added to plasma in water. To these samples, DMSO (3.2 μL) was mixed in to make 1% final concentration. Conversely, water (3.2 μL) was added to clots to which inactivator was added in DMSO. […] The progress of the fibrinolysis was followed by quantitating the amount of radioactivity in a 20 μL aliquot of the lysis buffer at various lysis times. To measure the total amount of radioactivity in the clots taken for lysis, 0.6 mg bovine trypsin was added to each sample at the end of the lysis and the solutions were incubated for 4 hours at 37° C., or until the digestion was complete. An aliquot (20 μL) of the resulting solution was counted in the liquid scintillation counter. Per cent of fibrinolysis was then calculated with a correction for sub-sampling. […]

O=C(O)CN(CCCCCCNS(=O)(=O)c1ccccc1[N+](=O)[O-])c1nsc2nccn12 [H / CH2CO2H / 2-NO2-Ph, N-imidazo[1,2-d][1,2,4]thiadiazol-3-yl-N-(6-{[(2-nitrophenyl)sulfonyl]amino}hexyl)glycine]
fibrinolysis of plasma clots: acceleration of fibrinolysis
